Results as given in patent US10149838B2, “Small molecule securinine and norsecurinine analogs and their use in inhibiting myeloperoxidase” (MiRx Pharmaceuticals, LLC, priority 2013, dated 2018).

What was measured:
MPO [1] = biological target: T1, MPO (Homo sapiens, UniProt P05164); experiment: Myeloperoxidase Inhibitor Screening Assay Kit (Cayman Chemical), chlorination activity; type: biochemical; parameters: purchased Cayman Chemical 700170; concentration or dose not given beside the values; conditions: Table 1; MPO inhibitory activity
T1 sequence (P05164 49-745): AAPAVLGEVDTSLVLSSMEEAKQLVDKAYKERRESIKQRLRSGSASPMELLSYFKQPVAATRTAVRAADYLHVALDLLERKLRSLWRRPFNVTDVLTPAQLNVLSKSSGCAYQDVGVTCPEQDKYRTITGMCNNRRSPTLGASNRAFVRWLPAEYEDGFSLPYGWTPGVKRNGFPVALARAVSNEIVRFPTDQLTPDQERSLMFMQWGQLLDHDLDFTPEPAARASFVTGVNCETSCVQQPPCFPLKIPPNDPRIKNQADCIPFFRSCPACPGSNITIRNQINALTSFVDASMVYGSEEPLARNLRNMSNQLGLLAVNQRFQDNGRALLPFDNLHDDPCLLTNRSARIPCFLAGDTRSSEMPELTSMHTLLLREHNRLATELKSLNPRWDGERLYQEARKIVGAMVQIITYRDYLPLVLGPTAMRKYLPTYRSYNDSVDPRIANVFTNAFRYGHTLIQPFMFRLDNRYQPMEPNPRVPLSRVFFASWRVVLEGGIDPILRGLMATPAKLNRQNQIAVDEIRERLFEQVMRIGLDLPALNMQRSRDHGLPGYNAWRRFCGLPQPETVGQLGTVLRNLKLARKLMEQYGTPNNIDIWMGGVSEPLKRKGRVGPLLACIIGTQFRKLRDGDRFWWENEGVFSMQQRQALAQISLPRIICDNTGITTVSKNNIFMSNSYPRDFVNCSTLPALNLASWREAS
Experimental: The columns are represented as follows: A: Blank; B: Commercial inhibitor; C; Another commercial inhibitor (sc-204107); D: Securinine; E: INVS-MG-98B, F: 14-Iodosecurinine; G; INVS-MG-106B.
The analogs described herein were contacted against MPO and the biological activity was assessed. Tables 1 and 2 show representative biological activity examples and that the listed compounds are potent inhibitors of MPO, specifically that the analogs inhibit chlorination activity. The compounds were tested for MPO inhibitory activity using the Myeloperoxidase Inhibitor Screening Assay Kit (Cayman Chemical Cat #700170) as described in the manufacturers manual
Studies were then aimed at establishing dose dependent relative chlorination activity results of securinine and norsecurinine analogs. As depicted in FIG. 4, the analogs of the present invention were extremely potent in inhibiting chlorination.

some cell lines = experiment: MTT cell survival assay (Roche), cell lines not specified; type: cell-based; conditions: cell culture conditions
Excerpt: The securinine analog MPO inhibitors have favorable in vitro and in vivo toxicity profiles.

MPO [2] = biological target: T1, MPO; experiment: Biotin pull-down with streptavidin magnetic beads from HL60 cells, SDS-PAGE, MS and western blot; type: binding; parameters: endogenous in cells; host or cells: HL60; conditions: 10 μM, 2 hr, biotin-conjugated
Experimental: Only MPO (red) and H2O2 promoted a shift in the Soret peak, formation of a new band at 630 nm (blue).
It was next set about to investigate the molecular target of the analogs (FIG. 6A). Cultured HL60 cells were treated with either Biotin/Biotin-INVMG1 (securinine) (10 μM) for 2 hr and pull-down experiments using streptavidin magnetic beads were used to pulldown bound molecules, followed by SDS-PAGE analysis (FIG. 6B). […] This 80 kDa protein band was excised, digested with trypsin, and the tryptic digests then analyzed using Mass Spectroscopy. […] The proteins bound to streptavidin beads were next separated using SDS-PAGE and incubated then with anti-human MPO antibody. […] To further confirm the binding of INVMG1 to MPO, the MPO enzyme was incubated with and without INVMG184B/H2O2, and analyzed absorption maxima using UV/visible.

SMILES	% Activity (MPO [1]) [%]	also measured
O=C1C=C2C[C@H](SCC(F)(F)F)[C@@H]3C[C@@]2(O1)[C@H]1CCCCN31 (stereo in doubt) [5B]	83	
CC(C)CSC1CC2=CC(=O)O[C@@]23C[C@@H]1N1CCCC[C@@H]13 (stereo in doubt) [57A]	86	
CC(C)CS[C@H]1CC2=CC(=O)O[C@@]23C[C@@H]1N1CCCC[C@@H]13 (stereo in doubt) [57B]	2	
O=C1C=C2CC(SC34CC5CC(CC(C5)C3)C4)[C@@H]3C[C@@]2(O1)[C@H]1CCCCN31 (stereo partly drawn) [4A]	1	
O=C1CC2(SCC(F)(F)F)CC(SCC(F)(F)F)[C@@H]3C[C@@]2(O1)[C@H]1CCCCN31 (stereo partly drawn) [5A]	78	
O=C1C=C2CC(N3CCC(F)(F)C3)[C@@H]3C[C@@]2(O1)[C@H]1CCCCN31 (stereo partly drawn) [9A]	46	
O=C1C=C2CC(SCC3CCCCCC3)[C@@H]3C[C@@]2(O1)[C@H]1CCCCN31 (stereo partly drawn) [16A]	91	
CCCCCCCSC1CC2=CC(=O)O[C@@]23C[C@@H]1N1CCCC[C@@H]13 (stereo partly drawn) [19A]	38	
CCN(CC)CCSC1CC2=CC(=O)O[C@@]23C[C@@H]1N1CCCC[C@@H]13 (stereo partly drawn) [21B]	30	
O=C1C=C2CC(NCC3CC3)[C@@H]3C[C@@]2(O1)[C@H]1CCCCN31 (stereo partly drawn) [25B]	99	
O=C1C=C2CC(NC3CC3)[C@@H]3C[C@@]2(O1)[C@H]1CCCCN31 (stereo partly drawn) [26A]	83	
O=C1C=C2CC(NC3CCCC3)[C@@H]3C[C@@]2(O1)[C@H]1CCCCN31 (stereo partly drawn) [27B]	46	
O=C1C=C2CC(NC3CCCCC3)[C@@H]3C[C@@]2(O1)[C@H]1CCCCN31 (stereo partly drawn) [28B]	86	
O=C1C=C2CC(NC3CCCCCC3)[C@@H]3C[C@@]2(O1)[C@H]1CCCCN31 (stereo partly drawn) [29A]	1	
O=C1C=C2CC(NC3CCCCCCC3)[C@@H]3C[C@@]2(O1)[C@H]1CCCCN31 (stereo partly drawn) [30A]	78	
CC(C)SC1CC2=CC(=O)O[C@@]23C[C@@H]1N1CCCC[C@@H]13 (stereo partly drawn) [37B]	97	
O=C1C=C2CC(NC3CC(O)C3)[C@@H]3C[C@@]2(O1)[C@H]1CCCCN31 (stereo partly drawn) [46B]	99	
CCCSC1CC2=CC(=O)O[C@@]23C[C@@H]1N1CCCC[C@@H]13 (stereo partly drawn) [58C]	30	
CO[C@H]1CC2=CC(=O)O[C@@]23C[C@@H]1N1CCCC[C@@H]13 [97-IIB]	97	
CCCN(CC#CC1=C[C@@H]2C[C@@]3(OC(=O)C=C13)[C@H]1CCCCN21)CCC [152A]	18	
COc1ccc2cc(C#CC3=C[C@@H]4C[C@@]5(OC(=O)C=C35)[C@H]3CCCCN43)ccc2c1 [157B]	80	
O=C1C=C2C(C#Cc3cccs3)=C[C@@H]3C[C@@]2(O1)[C@H]1CCCCN31 [170B]	64	
C#CC1=C[C@@H]2C[C@@]3(OC(=O)C=C13)[C@H]1CCCCN21 [207A]	99	
COc1cc(C#CC2=C[C@@H]3C[C@@]4(OC(=O)C=C24)[C@H]2CC[C@H](C(OC)OC)N32)cc(OC)c1 [222B]	70	
O=C1C=C2CC(SCc3cccs3)[C@@H]3C[C@@]2(O1)[C@H]1CCCCN31 (stereo partly drawn) [INVS-MG-14B]	83	
O=C1C=C2C=C[C@@H]3C[C@@]2(O1)[C@H]1CCCCN31 [MA1]		in vitro toxicity (cell survival) (some cell lines): higher toxicity effect on some cell lines
O=C(CCCC[C@@H]1SC[C@@H]2NC(=O)N[C@@H]21)NCCS[C@H]1CC2=CC(=O)O[C@@]23C[C@@H]1N1CCCC[C@@H]13 [SEC- BIO]	32	
NCCSC1CC2=CC(=O)O[C@@]23C[C@@H]1N1CCCC[C@@H]13 (stereo partly drawn) [compound 105]	99	
O=C1C=C2C=C[C@@H]3C[C@@]2(O1)[C@H]1CCCCN31 [securinine, Securinine]	32	binding to MPO in pull-down (MPO [2]): revealed the binding of MPO
